This note sets out measurements from US11834431B2, “Crystals of cyclic amine derivative and pharmaceutical use thereof” (Toray Industries, Inc., priority 2016, dated 2023).

The test system of data set [1] is spinal nerve ligation model rats (neuropathic pain model rats). The data set is described as follows: Analgesic effect on allodynia in spinal nerve ligation model rats (von Frey, 50% response threshold). It counts as in vivo, rat. The settings on record: measured 3 hours after administration, 8 days after ligation, compared to negative control group. The procedure:
Analgesic effects of the crystal of compound (I) or the pharmacologically acceptable salt thereof upon neuropathic pain were evaluated using spinal nerve ligation model rats (Kim and Chung, Pain, 1992, vol. 50, p. 355). Form A crystal of compound (I) was used as a crystal of compound (I) or the pharmacologically acceptable salt thereof for evaluation.
The above model rats were prepared as follows. In experiments, 6-to 7-week-old SD male rats were used for 5 to 7 cases per group, and the lumbar skin and muscle of each rat were dissected to expose the L5 and L6 […] under inhalation anesthesia with isoflurane. After ligating the L5 and L6 spinal nerves with silk suture, the wound of each rat was sutured. Thus, a nerve ligation group was prepared. The group in which the nerve was exposed but not ligated was determined to be a sham surgery group.
Allodynia observed in spinal nerve ligation model rats was measured using a von Frey filaments according to a method described in a known publication (Chaplan et al., J. Neurosci. Methods, 1994, vol. 53, p. 55) and a 50% response threshold (g) was determined. Eight days after the ligation surgery, allodynia of the nerve ligation group was measured before oral administration of Form A crystal of compound (I). Rats with a 50% response threshold (average value of the right hind paw and the left hind paw) of 2 g to less than 6 g were considered to have developed allodynia. The rats were divided as neuropathic pain model rats into groups such that there was no significant difference in the 50% response threshold between groups. Allodynia was measured 3 hours after the oral administration of Form A crystal of compound (I), and the analgesic effect was evaluated. Pregabalin was used as a positive control.
Form A crystal of compound (I) was dissolved in water for injection (distilled water) to result in concentrations of 5, 10, and 20 mg/mL, and orally administered in a dose volume of 1 mL per kg body weight. Pregabalin was dissolved in water for injection (distilled water) to result in a concentration of 10 mg/mL and orally administered in a dose volume of 1 mL per kg of body weight. Water for injection (distilled water) was orally administered to the sham surgery group. A group in which water for injection (distilled water) was orally administered to rats in the nerve ligation group was defined as a negative control group.
The horizontal axis represents the solution to be administered in each group, namely, the nerve ligation group or sham surgery group, and the vertical axis represents the 50% response threshold (g) (mean±standard error, n=5 to 7). […]

Another data set relates to fibromyalgia model rats. Briefly: Analgesic effect on allodynia in fibromyalgia model rats (von Frey, 50% response threshold). The format is in vivo, rat. The settings on record: measured 3 hours after administration, Day 7, compared to negative control group. On the procedure:
The analgesic effect of the crystal of compound (I) or the pharmacologically acceptable salt thereof against fibromyalgia syndrome was evaluated using fibromyalgia model rats (Sluka et al., Journal of Pharmacology and Experimental Therapeutics, 2002, vol. 302, pp. 1146-1150; Nagakura et al., Pain, 2009, vol. 146, pp. 26-33; Sluka et al., Pain, 2009, vol. 146, pp. 3-4). Form A crystal of compound (I) was used as a crystal of compound (I) or the pharmacologically acceptable salt thereof for evaluation.
The above model rats were prepared as follows. In experiments, 6-to 7-week-old SD male rats were used for 5 or 6 cases per group. 100 μL of acidic physiological saline adjusted to pH 4.0 was administered twice to the gastrocnemius muscle of the right hind paw of each rat (the day of the administration of acidic physiological saline was defined as Day 1 after the start of the experiment, and single dose administrations were carried out on Days 1 and 6 after the start of the experiment) under inhalation anesthesia with isoflurane. The thus prepared group was determined to be an acidic physiological saline group. As a control for the model, a group treated with a physiological saline instead of an acidic physiological saline was determined to be a physiological saline group.
Allodynia observed in fibromyalgia model rats was measured using a von Frey filaments according to a method described in a known publication (Chaplan et al., Journal of Neuroscience Methods, 1994, vol. 53, pp. 55-63) and a 50% response threshold (g) was determined. On Day 7 after the start of the experiment, allodynia was measured 3 hours after oral administration of Form A crystal of compound (I), and the analgesic effect was evaluated. Allodynia of the acidic physiological saline group was measured before oral administration of Form A crystal of compound (I). […] Allodynia was measured 3 hours after the oral administration of the crystal of compound (I), and the analgesic effect was evaluated. […]

The nature of data set [2]: Evaluation of storage stability of Form A crystal, 6 months (HPLC purity, powder X-ray diffraction, TG-DTA). It counts as physicochemical.
Where [3] appears, read: Storage test 1: 25° C., relative humidity 60%, open state.
Setting [4] is: Storage test 2: 40° C., relative humidity 75%, airtight state.
Setting [5] is: Storage test 3: 60° C., airtight state.
[6] abbreviates: any of storage tests 1 to 3, 6 months.

For `CN(C)C1CCN(C(=O)C[C@H](O)c2nccn2C)CC1` [Form A crystal, (S)-1-(4-(dimethylamino)piperidin-1-yl)-3-hydroxy-3-(1-methyl-1H-imidazol-2-yl)propan-1-one], the “improvement of allodynia (50% response threshold)” value (in data set [1] (oral 5 mg/kg); in data set [1] (oral 10 mg/kg); in data set [1] (oral 20 mg/kg); with fibromyalgia model rats (oral 1 mg/kg); in the data set on fibromyalgia model rats (oral 10 mg/kg)) was “significant improvement” in each case. For the same compound, the “Chemical purity, After 6 months” value in data set [2] (setting [3]), in data set [2] (setting [4]) and in data set [2] (setting [5]) was 99.8% in each case. Further, the “Crystal form after 6 months” value in data set [2] (setting [3]), in data set [2] (setting [4]) and in data set [2] (setting [5]) was “Form A” throughout. Also, the “Decomposition product increased by not less than 0.15% after 6 months” value in data set [2] (setting [3]), in data set [2] (setting [4]) and in data set [2] (setting [5]) was “None” each time. Moreover, the “Optical purity, After 6 months” value in data set [2] (setting [3]), in data set [2] (setting [4]) and in data set [2] (setting [5]) was 99.0 % ee throughout. The “change in the crystal form on storage” value in data set [2] (setting [6]) is listed as “no change was observed”. Further, the “change of purity on storage” value in data set [2] (setting [6]) is recorded as “did not change”. Moreover, in data set [2] (before storage), the “Chemical purity, Initial value” was found to be 99.8%. The “Optical purity, Initial value” in data set [2] (before storage) was 98.8 % ee.
